The values below come from patent publication US20240287046A1, “COMPOUNDS AND RADIOLIGANDS FOR TARGETING NEUROTENSIN RECEPTOR AND USES THEREOF” (Full-Life Technologies HK Limited, priority 2022, published 2024).

One series has as its target human NTSR-1 (Homo sapiens (Human), UniProt P30989). The experiment in a line: radioligand competitive binding assay using ^177Lu labeled C-1 as reference radioligand. The conditions noted are these: for Relative Binding Affinity: Mean IC50 of C-1/Mean IC50 of the test compound; for IC50: Nonlin fit, single assay, HT-29 cells; for binding affinity compared to comparator compound C-1 or C-3: single radioligand competitive binding assay. The protocol: The binding affinities of test compounds were determined by a radioligand competitive binding assay using ^177Lu labeled C-1 as the reference radioligand.
Briefly, 100 μL HT-29 cells expressing human NTSR-1 at a density of 1˜2×10^6 cells/mL were mixed with binding buffer (RPMI-1640 medium supplemented with 0.25% bovine serum albumin) in each well of the 96-well filter plate (Millipore). Then the cells in each well were incubated with ^177Lu—C-1 (0.55 μCi/well) and the test compound under 37° C. for 1 hr (n=3). After incubation, unbound ^177Lu—C-1 and the test compound in each well was removed by filtration using a Multiscreen vacuum manifold (Millipore) and the cells were further rinsed with the binding buffer for 5 times. The cells from each well were then collected and radioactivity of the cells in each well was individually measured by y counter (2480 WIZARD2, PerkinElmer). The best-fit IC50 value of test compounds (inhibitory concentration when 50% of the bound ^177Lu—C-1 on cells were displaced) were calculated by fitting the data with nonlinear regression using GraphPad Prism 8.0.1.

Series [1] relates to ASPC-1 tumor-bearing mice. Briefly: Biodistribution of radionuclide labeled complexes in ASPC-1 tumor-bearing mice. It is filed as in vivo, BALB/c nude mice. The conditions noted are these: ^177Lu-labeled complex. How it is done: The BALB/c nude mice (Charles River, Beijing) were utilized to establish the xenografted model for biodistribution study. All animal care and experimental procedure were performed by following the animal protocols approved by the ethics committee of China Institute of Radiation Protection.
Briefly, each mouse was inoculated with approximately 4×10^6 ASPC-1 cells (human pancreatic cancer cell line) or HT-29 cells (human colorectal adenocarcinoma cell line) expressing human NTSR-1 by subcutaneous injection at rear flank. After inoculation, the xenografted tumors were allowed to grow for ˜2-4 weeks till the tumor weight reached to about 0.05 to 0.50 g (0.20 g in average).
Biodistribution studies were performed by administrating the radionuclide labeled test compound at a dose of ˜30-50 μCi (100 μL in 0.9% NaCl, ˜1.11-1.85 MBq, with specific activity 30-250 μCi/nmol) to each animal through tail vein injection.
At different time points after the administration, the mice treated with each compound were euthanized. The tissues and organs of the animals in each group were collected, excised, weighed, and analyzed in a PerkinElmer 2480 WIZARD2γ counter, and the percent injected dose (% ID) and % ID/g of each organ or tissue were calculated.

Where [2] appears, read: read-out: LogIC50 Mean (converted).

Read-outs that look alike come from different tables or passages of the source.

Sequence of human NTSR-1 (P30989 whole entry): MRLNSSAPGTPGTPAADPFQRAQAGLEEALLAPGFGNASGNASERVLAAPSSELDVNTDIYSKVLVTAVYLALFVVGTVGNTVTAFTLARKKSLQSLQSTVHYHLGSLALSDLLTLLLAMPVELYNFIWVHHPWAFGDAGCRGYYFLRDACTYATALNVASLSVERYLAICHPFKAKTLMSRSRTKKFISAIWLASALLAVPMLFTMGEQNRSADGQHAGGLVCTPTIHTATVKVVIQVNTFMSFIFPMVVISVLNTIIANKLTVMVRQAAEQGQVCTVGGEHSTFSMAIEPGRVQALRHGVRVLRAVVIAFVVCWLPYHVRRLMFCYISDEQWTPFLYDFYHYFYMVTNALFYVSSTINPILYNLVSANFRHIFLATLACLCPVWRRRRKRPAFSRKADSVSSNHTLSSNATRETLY

On to `CC(=O)N[C@@H](CCCCNC(=O)CN1CCN(CC(=O)O)CCN(CC(=O)O)CCN(CC(=O)O)CC1)C(=O)N1CCC[C@H]1C(=O)N(C)[C@@H](CCCNC(=N)N)C(=O)N[C@@H](CCCNC(=N)N)C(=O)N1CCC[C@H]1C(=O)N[C@@H](Cc1ccc(O)cc1)C(=O)N[C@H](C(=O)N[C@@H](CC(C)C)C(=O)O)C(C)(C)C` [Compound C-1, reference compound], for which the “Relative Binding Affinity” value at human NTSR-1 was 1.00. Moreover, the figures for the IC50 on human NTSR-1 (read-out: IC50 (nM) Mean) and on human NTSR-1 (setting [2]) were 40.3 nM and 40.4 nM, respectively.

Consider `COc1cccc(OC)c1-c1cc(C(=O)NC2(C(=O)O)C3CC4CC(C3)CC2C4)nn1-c1ccc(N(CCCN(C)C)C(C)=O)cc1C(C)C` (centres unmarked) [Compound C-4, reference compound], for which, on human NTSR-1, the “Relative Binding Affinity” value was 22.0.

On to `COc1cccc(OC)c1-c1cc(C(=O)NC2(C(=O)O)C3CC4CC(C3)CC2C4)nn1-c1ccc(N(C)CCCN(C)CCCN(C)C(=O)CN2CCN(CC(=O)O)CCN(CC(=O)O)CCN(CC(=O)O)CC2)cc1C(C)C` (centres unmarked) [Compound I-1, 2,2′,2″-(10-(2-((3-((3-((4-(3-((2-carboxyadamantan-2-yl)carbamoyl)-5-(2,6-dimethoxyphenyl)-1H-pyrazol-1-yl)-3-isopropylphenyl)(methyl)amino)propyl)(methyl)amino)propyl)(methyl)amino)-2-oxoethyl)-1,4,7,10-tetraazacyclododecane-1,4,7-triyl)triacetic acid], for which, on human NTSR-1, the “Relative Binding Affinity” value was determined as 82.6 and the “binding affinity compared to comparator compound C-1 or C-3” value is reported as “higher binding affinity”. On human NTSR-1 (read-out: IC50 (nM) Mean), the IC50 is 0.465 nM. In addition, the IC50 at human NTSR-1 (setting [2]) was 0.465 nM. Further, in series [1], the “AUC (0-72 h) ratio Tumor/Blood” value was determined as 36.5, the “AUC (0-72 h) ratio Tumor/Kidney” value amounted to 5.6, the “AUC (0-72 h) ratio Tumor/Liver” value stood at 12.8 and the “AUC (0-72 h) ratio Tumor/Lung” value was determined as 39.3.

`COc1cccc(OC)c1-c1cc(C(=O)NC2(C(=O)O)C3CC4CC(C3)CC2C4)nn1-c1ccc(NCCCN(C)CCCNC(=O)CN2CCN(CC(=O)O)CCN(CC(=O)O)CCN(CC(=O)O)CC2)cc1C(C)C` (centres unmarked) [Compound I-2, 2,2′,2″-(10-(2-((3-((3-((4-(3-((−2-carboxyadamantan-2-yl)carbamoyl)-5-(2,6-dimethoxyphenyl)-1H-pyrazol-1-yl)-3-isopropylphenyl)amino)propyl)(methyl)amino)propy)amino)-2-oxoethyl)-1,4,7,10-tetraazacyclododecane-1,4,7-triyl)triacetic acid]: the IC50 on human NTSR-1 (read-out: IC50 (nM) Mean) stood at 0.559 nM. The IC50 at human NTSR-1 (setting [2]) is 0.558 nM. In series [1], the “AUC (0-72 h) ratio Tumor/Blood” value is listed as 12.5, the “AUC (0-72 h) ratio Tumor/Kidney” value was found to be 10.4, the “AUC (0-72 h) ratio Tumor/Liver” value came out at 10.6 and the “AUC (0-72 h) ratio Tumor/Lung” value came to 39.4.

On to `COc1cccc(OC)c1-c1cc(C(=O)NC2(C(=O)O)C3CC4CC(C3)CC2C4)nn1-c1ccc(NCCCN(C)CCCNC(=O)COCCOCCNC(=O)CN2CCN(CC(=O)O)CCN(CC(=O)O)CCN(CC(=O)O)CC2)cc1C(C)C` (centres unmarked) [Compound I-3, 2,2′,2″-(10-(19-((4-(3-((2-carboxyadamantan-2-yl)carbamoyl)-5-(2,6 dimethoxyphenyl)-1H-pyrazol-1-yl)-3-isopropylphenyl)amino)-16-methyl-2,11-dioxo-6,9-dioxa-3,12,16-triazanonadecyl)-1,4,7,10-tetraazacyclododecane-1,4,7-triyl)tracetic acid], for which the “Relative Binding Affinity” value at human NTSR-1 was 519.8.

On to `COc1cccc(OC)c1-c1cc(C(=O)NC2(C(=O)O)C3CC4CC(C3)CC2C4)nn1-c1ccc(N(C)CCCN(C)CCCN(C)C(=O)COCCOCCNC(=O)CN2CCN(CC(=O)O)CCN(CC(=O)O)CCN(CC(=O)O)CC2)cc1C(C)C` (centres unmarked) [Compound I-4, 2,2′,2″-(10-(2-(4-(3-((2-carboxyadamantan-2-yl)carbamoyl)-5-(2,6-dimethoxyphenyl)-1H-pyrazol-1-yl)-3-isopropylphenyl)-6,10-dimethyl-11,20-dioxo-13,16-dioxa-2,6,10,19-tetraazahenicosan-21-yl)-1,4,7,10-tetraazacyclododecane-1,4,7-triyl)triacetic acid], for which the “Relative Binding Affinity” value on human NTSR-1 was found to be 538.2.

As for `COc1cccc(OC)c1-c1cc(C(=O)NC2(C(=O)O)C3CC4CC(C3)CC2C4)nn1-c1ccc(CCCCN(C)CCCN(C)C(=O)CN2CCN(CC(=O)O)CCN(CC(=O)O)CCN(CC(=O)O)CC2)cc1C(C)C` (centres unmarked) [Compound I-9, 2,2′,2″-(10-(2-((3-((4-(4-(3-((2-carboxyadamantan-2-yl)carbamoyl)-5-(2,6-dimethoxyphenyl)-1H-pyrazol-1-yl)-3-isopropylphenyl)butyl)(methyl)amino)propyl)(methyl)amino)-2-oxoethyl)-1,4,7,10-tetraazacyclododecane-1,4,7-triyl)triacetic acid], the “Relative Binding Affinity” value at human NTSR-1 worked out at 243.5.

Turning to `COc1cccc(OC)c1-c1cc(C(=O)NC2(C(=O)O)C3CC4CC(C3)CC2C4)nn1-c1ccc(NCCOCCOCCNC(=O)CN2CCN(CC(=O)O)CCN(CC(=O)O)CCN(CC(=O)O)CC2)cc1C(C)C` (centres unmarked) [Compound I-10, 2,2′,2″-(10-(2-((2-(2-(2-((4-(3-((2-carboxyadamantan-2-yl)carbamoyl)-5-(2,6-dimethoxyphenyl)-1H-pyrazol-1-yl)-3-isopropylphenyl)amino)ethoxy)ethoxy)ethyl)amino)-2-oxoethyl)-1,4,7,10-tetraazacyclododecane-1,4,7-triyl)triacetic acid], on human NTSR-1, the “binding affinity vs 3BP-227 (C-2) on removal of the tertiary amine motif in the linker” value is “not compromise the binding affinity” and the “Relative Binding Affinity” value turned out to be 28.3. In series [1], the “AUC (0-72 h) ratio Tumor/Blood” value amounted to 58.0, the “AUC (0-72 h) ratio Tumor/Kidney” value turned out to be 15.4, the “AUC (0-72 h) ratio Tumor/Liver” value came out at 41.1 and the “AUC (0-72 h) ratio Tumor/Lung” value came out at 31.3.

For the compound `COc1cccc(OC)c1-c1cc(C(=O)NC2(C(=O)O)C3CC4CC(C3)CC2C4)nn1-c1ccc(NC(=O)COCCOCCNC(=O)CN2CCN(CC(=O)O)CCN(CC(=O)O)CCN(CC(=O)O)CC2)cc1C(C)C` (centres unmarked) [Compound I-12], at human NTSR-1, the “Relative Binding Affinity” value is given as 11.2.

As to `COc1cccc(OC)c1-c1cc(C(=O)NC2(C(=O)O)C3CC4CC(C3)CC2C4)nn1-c1ccc(N(CCCN(C)C)C(=O)COCCOCCNC(=O)CN2CCN(CC(=O)O)CCN(CC(=O)O)CC2)cc1C(C)C` (centres unmarked) [Compound I-13], at human NTSR-1, the “Relative Binding Affinity” value amounted to 14.6.

`COc1cccc(OC)c1-c1cc(C(=O)NC2(C(=O)O)C3CC4CC(C3)CC2C4)nn1-c1ccc(NCCCN(C)C)cc1C(C)C` (centres unmarked) [II-1, 2-(5-(2,6-dimethoxyphenyl)-1-(4-((3-(dimethylamino)propyl)amino)-2-isopropylphenyl)-1H-pyrazole-3-carboxamido)adamantane-2-carboxylic acid]: the “Relative Binding Affinity” value at human NTSR-1 came out at 107.6. In addition, the “improvement of potency vs SR142948 (C-3)” value at human NTSR-1 (removal of the carbonyl group from the amide group) is at least 10 fold.

For `COc1cccc(OC)c1-c1cc(C(=O)NC2(C(=O)O)C3CC4CC(C3)CC2C4)nn1-c1ccc(NCCCCN(C)C)cc1C(C)C` (centres unmarked) [II-2, 2-(5-(2,6-dimethoxyphenyl)-1-(4-((4-(dimethylamino)butyl)amino)-2-isopropylphenyl)-1H-pyrazole-3-carboxamido)adamantane-2-carboxylic acid], on human NTSR-1, the “Relative Binding Affinity” value is recorded as 293.0 and the “binding affinity compared to comparator compound C-1 or C-3” value is “higher binding affinity”. At human NTSR-1 (setting [2]), the IC50 was 0.158 nM.

With `COc1cccc(OC)c1-c1cc(C(=O)NC2(C(=O)O)C3CC4CC(C3)CC2C4)nn1-c1ccc(NCCCCCN(C)C)cc1C(C)C` (centres unmarked) [II-3, 2-(5-(2,6-dimethoxyphenyl)-1-(4-((5-(dimethylamino)pentyl)amino)-2-isopropylphenyl)-1H-pyrazole-3-carboxamido)adamantane-2-carboxylic acid], on human NTSR-1, the “Relative Binding Affinity” value was 535.2.
